Results from publication PMC3874090, “Synthesis and Evaluation of Anti-acetylcholinesterase Activity of 2-(2-(4-(2-Oxo-2-phenylethyl)piperazin-1-yl) ethyl)Isoindoline-1,3-dione Derivatives with Potential Anti-Alzheimer Effects” (Iranian Journal of Basic Medical Sciences, 2013).
Where two headings read alike, the source gives them in different places.

What was measured:
[1] = biological target: T1, acetylcholinesterase from electric eel (Electrophorus electricus, UniProt O42275); test: biochemical; details: Ellman test, electric eel AChE
T1 construct: purchased Sigma-Aldrich (Steinheim, Germany) Type V-S
Experimental: Lyophilized powder of acetylcholinesterase from electric eel source (AChE, E.C. 3.1.1.7, Type V-S, 1000 unit) was purchased from Sigma-Aldrich (Steinheim, Germany). 5,5'-Dithiobis-(2-nitrobenzoic acid, DTNB), potassium dihydrogen phosphate (KH2PO4), dipotassium hydrogen phosphate (K2HPO4), potassium hydroxide (KOH), sodium hydrogen carbonate (NaHCO3), and acetylthiocholine iodide were purchased from Fluka (Buchs, Switzerland).
According to the literature, the Ellman test was performed for assessment of the anticholinesterase activity of intended compounds in vitro. […] After rapid and immediate mixing the change of absorption was measured at 412 nm. The blank reading contained 3 ml buffer, 200 µl water, 100 µl DTNB and 20 µl substrate. The reaction rates were calculated, and the percent inhibition of test compounds was determined. Each concentration was analyzed in triplicate, and IC50 ± SD values were determined graphically from inhibition curves (log inhibitor concentration vs percent of inhibition) ([21], [22]).

acetylcholinesterase = biological target: acetylcholinesterase; set-up: method as in Sugimoto and collegues [20]; details: in Figure 2; ref Sugimoto and collegues [20]; read-out: IC50 of lead compound; cited from earlier work
[2] = preincubated 15 min at 25 °C, pH 8.0, triplicate, read-out: IC50 (μM ± SD), acetylcholinesterase inhibitory activity

T1 sequence (O42275 24-633): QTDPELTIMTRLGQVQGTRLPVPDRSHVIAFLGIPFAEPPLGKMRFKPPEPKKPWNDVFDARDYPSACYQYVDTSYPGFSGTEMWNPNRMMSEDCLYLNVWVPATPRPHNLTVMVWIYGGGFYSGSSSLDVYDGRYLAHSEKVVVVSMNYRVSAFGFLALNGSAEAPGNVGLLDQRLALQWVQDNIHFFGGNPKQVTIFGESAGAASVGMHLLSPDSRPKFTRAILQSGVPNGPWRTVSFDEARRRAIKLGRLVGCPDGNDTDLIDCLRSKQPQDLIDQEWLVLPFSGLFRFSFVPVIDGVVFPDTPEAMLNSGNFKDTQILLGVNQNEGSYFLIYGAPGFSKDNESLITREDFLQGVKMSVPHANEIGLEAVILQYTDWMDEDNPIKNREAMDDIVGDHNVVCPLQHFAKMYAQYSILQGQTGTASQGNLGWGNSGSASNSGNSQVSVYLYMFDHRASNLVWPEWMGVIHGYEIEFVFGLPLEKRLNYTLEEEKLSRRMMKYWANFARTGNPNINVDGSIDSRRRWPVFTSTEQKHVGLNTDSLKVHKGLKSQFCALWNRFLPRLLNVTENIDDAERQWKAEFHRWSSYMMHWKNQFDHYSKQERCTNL

SMILES | IC50 [1, 2] | other results
O=C(CN1CCN(CCN2C(=O)c3ccccc3C2=O)CC1)c1ccccc1 [Compound 4a, 2-(2-(4-(2-Oxo-2-phenylethyl)piperazin-1-yl)ethyl)isoindoline-1,3-dione] | 45.6 ± 2.78 µM | –
O=C(CN1CCN(CCN2C(=O)c3ccccc3C2=O)CC1)c1ccc(F)cc1 [Compound 4b, 2-(2-(4-(2-(4-Fluorophenyl)-2-oxoethyl)piperazin-1-yl)ethyl)isoindoline-1,3-dione] | – | IC50 ([1]; read-out: IC50, acetylcholinesterase inhibition): 16.4 ± 1.07 µM
O=C(CN1CCN(CCN2C(=O)c3ccccc3C2=O)CC1)c1cccc(Cl)c1 [Compound 4c, 2-(2-(4-(2-(3-Chlorophenyl)-2-oxoethyl)piperazin-1-yl)ethyl)isoindoline-1,3-dione] | 28.2 ± 2.3 µM | –
O=C(CN1CCN(CCN2C(=O)c3ccccc3C2=O)CC1)c1ccc(Cl)cc1Cl [Compound 4d, 2-(2-(4-(2-(2,4-Dichlorophenyl)-2-oxoethyl)piperazin-1-yl)ethyl)isoindoline-1,3-dione] | 63 ± 4.06 µM | –
O=C(CN1CCN(CCN2C(=O)c3ccccc3C2=O)CC1)c1ccc2ccccc2c1 [Compound 4e, 2-(2-(4-(2-(Naphthalen-2-yl)-2-oxoethyl)piperazin-1-yl)ethyl)isoindoline-1,3-dione] | 40.5 ± 2.47 µM | –
O=C1c2ccccc2C(=O)N1CCC1CCN(Cc2ccccc2)CC1 [Compound A] | – | IC50 (acetylcholinesterase): 30 nM
